Test results taken from patent US7683078B2, “Arylsulfonamide derivatives as C-Jun-N-Terminal Kinases (JNK's) inhibitors” (Laboratoires Serono S.A., priority 2001, dated 2010).

Biological target: JNK3 (Homo sapiens, UniProt P53779)
Assay: JNK3 in vitro assay (33P incorporation into c-jun, SPA)
Assay type: biochemical
Settings: recombinant pre-activated GST-JNK3, biotinylated GST-c-Jun, 2 μM 33γ-ATP, 120 min R.T.; read-out: inhibition (IC50) with regard to JNK3
Method: The phosphorylation of c-jun by JNK2 or JNK3 can be followed by monitoring the incorporation of ^33P into c-jun following the protocol below. The inhibitory activity of the compounds according to formula I, towards c-jun phosphorylation through JNK, is determined by calculating phosphorylation activity in the presence or absence of compounds according to formula I.
JNK3 and/or -2 assays are performed in 96 well MTT plates: incubation of 0.5 μg of recombinant, pre-activated GST-JNK3 or GST-JNK2 with 1 μg of recombinant, biotinylated GST-c-Jun and 2 μM ^33γ-ATP (2 nCi/μl), in the presence or absence of compounds according to formula I and in a reaction volume of 50 μl containing 50 mM Tris-HCl, pH 8.0; 10 mM MgCl2; 1 mM Dithiothreitol, and 100 μM Na3VO4. The incubation is performed for 120 min. at R.T and stopped upon addition of 200 μl of a solution containing 250 μg of Streptavidine-coated SPA beads (Amersham, Inc.)*, 5 mM EDTA, 0.1% Triton-X-100 and 50 μM ATP, in phosphate saline buffer. After incubation for 60 minutes at RT, beads are sedimented by centrifugation at 1500×g for 5 minutes, resuspended in 200 μl of PBS containing 5 mM EDTA, 0.1% Triton X-100 and 50 μM ATP and the radioactivity measured in a scintillation β counter, following sedimentation of the beads as described above. […]

Sequence of JNK3 (P53779 whole entry, species assumed): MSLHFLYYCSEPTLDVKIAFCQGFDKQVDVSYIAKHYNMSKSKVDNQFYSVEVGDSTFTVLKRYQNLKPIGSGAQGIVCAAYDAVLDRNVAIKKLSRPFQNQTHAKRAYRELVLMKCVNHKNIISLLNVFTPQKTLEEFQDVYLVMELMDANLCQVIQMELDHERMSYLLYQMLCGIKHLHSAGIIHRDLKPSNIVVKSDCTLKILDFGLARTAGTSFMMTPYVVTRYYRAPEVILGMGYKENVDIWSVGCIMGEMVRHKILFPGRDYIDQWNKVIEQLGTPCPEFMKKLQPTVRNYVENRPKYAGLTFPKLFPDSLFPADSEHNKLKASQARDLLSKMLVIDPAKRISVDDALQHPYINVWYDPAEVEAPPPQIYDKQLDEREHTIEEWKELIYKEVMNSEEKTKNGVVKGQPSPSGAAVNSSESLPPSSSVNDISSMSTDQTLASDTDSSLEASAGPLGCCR

Row | IC50 | SMILES
1 | 188 nM | CN(CCCNCc1ccc(C(F)(F)F)cc1)S(=O)(=O)c1ccc(CNC(=O)c2ccc(Cl)cc2)s1 [Compound 13, 4-Chloro-N-(5-{methyl-[3-(4-trifluoromethyl-benzylamino)-propyl]-sulfamoyl}-thiophen-2-ylmethyl)-benzamide]
2 | 184 nM | CCCCCCNCCCN(C)S(=O)(=O)c1ccc(CNC(=O)c2ccc(Cl)cc2)s1 [Compound 14, 4-Chloro-N-{5-[(3-hexylamino-propyl)-methyl-sulfamoyl]-thiophen-2-ylmethyl}-benzamide]
